From patent US8153625B2, “Nitrogen-containing heterocyclic compounds and medicinal use thereof” (Ono Pharmaceutical Co., Ltd., priority 2002, dated 2012) come the findings set out here.

In data set [1] the target is T1, CXCR4 (Homo sapiens, UniProt P61073).
T1 construct: a human T cell line known to express CXCR4 can be employed; endogenous in cells; host or cells: CEM (human T cell line), whole cells
Put plainly: Inhibition of binding of human 125I-SDF-1 to CEM cells. Particulars: 125I-SDF-1 binding to human T cell line CEM. The source says: Typically, as an assay for screening for a compound which inhibits the binding between SDF-1 and CXCR4, a system measuring the binding between an I-labeled SDF-1 and a human T cell line known to express CXCR4 can be employed. Since both of a macrophage (R5) HIV and RANTES, MIP- 1 a, MIP-1I3 bind to CCR5, a similar understanding is possible.
Inhibition of Human SDF-1 with CEM Cell
In a binding buffer solution (HEPES containing BSA), a human T cell line CEM cell was mixed with a test compound and ^125I-SDF-1 (NEN) and incubated for 60 minutes at […]. The reacted CEM cell was filtered rapidly through a GF/B membrane filter plate (Packard) to effect adsorption, followed by washing three times with PBS, drying and addition of Microscint+20 (Packard).

T1 sequence (P61073 whole entry): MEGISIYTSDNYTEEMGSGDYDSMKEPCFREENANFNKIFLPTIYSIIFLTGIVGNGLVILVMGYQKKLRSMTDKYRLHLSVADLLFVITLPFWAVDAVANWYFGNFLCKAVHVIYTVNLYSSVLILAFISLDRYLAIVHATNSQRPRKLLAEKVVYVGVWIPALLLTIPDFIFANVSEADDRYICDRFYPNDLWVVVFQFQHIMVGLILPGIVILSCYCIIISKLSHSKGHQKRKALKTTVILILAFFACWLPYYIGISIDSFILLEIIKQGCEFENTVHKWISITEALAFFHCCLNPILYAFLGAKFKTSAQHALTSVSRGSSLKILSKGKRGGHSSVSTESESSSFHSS

Regarding `Cl.Cl.NCCNc1nccc(N2CCCCCC2)n1` [Example 1(41), 2-(2-aminoethylamino)-4-(perhydroazepin-1-yl)pyrimidine dihydrochloride], the melting point fell in the range of 100 to 102 °C. Further, in data set [1], the IC50 came to 200 nM.
In data set [1], `c1ccc(CN2CCC(Nc3nccc(N4CCCCCC4)n3)C2)cc1` (stereo not drawn) [Example 4, 2-(1-benzylpyrrolidin-3-ylamino)-4-(perhydroazepin-1-yl)pyrimidine] showed an IC50 of 150 nM.

As usually defined, the melting point is the temperature of the solid-liquid transition. The term IC50 denotes the point on the concentration scale where inhibition reaches its midpoint. Read a low IC50 as higher potency.
